Laboratory results published in patent US20220217980A1, “DITHIOCARBAMATE FUNGICIDE MACROMOLECULAR COMPLEXES” (Adama Makhteshim Ltd., priority 2019, published 2022).

Key:
[1] = Zeta potential analysis of mancozeb dispersions with and without polycations (Zetasizer Nano); assay type: physicochemical
Description: Zeta potential is an indicator for complexation and stability of a dispersion. A zeta potential close to zero between −10 mV and +10 Mv indicates a maximum interaction between polyelectrolytes and MZ. The Zeta potential is the charge that develops at the interface between a solid surface and its liquid medium. Zeta potential values give a value of the net charge (in mV) on particle surfaces.
To a 1 g/l aqueous polycation solution (chitosan (CTS), ϵ-poly-L-lysine or polyallylamine (PAA)), 5, 40, 60, 80 and 120 g/l of MZ powder was added, resulting in ratios 1:5, 1:40, 1:60, 1:80 and 1:120 (based on weigh/weight % of dry material), respectively. Mancozeb added to an aqueous solution served as a control. The dispersions were mixed for 10 min on a vortexing device.
The different polycation-mancozeb incubations were analyzed for the Zeta potential with a Zetasizer Nano (Malvern Instruments. United Kingdom).

[2] = at 20° C.; cited from earlier work

S=C([S-])NCCNC(=S)[S-].[Mn+2].[Zn] [Mancozeb, zinc; manganese(2+); N-[2-(sulfidocarbothioylamino)ethyl]carbamodithioate]
zeta potential ([1]; ratio polycation:mancozeb 1:5): −18.2 mV | zeta potential ([1]; ratio polycation:mancozeb 1:40): −20.6 mV | zeta potential ([1]; ratio polycation:mancozeb 1:60): −20.5 mV | zeta potential ([1]; ratio polycation:mancozeb 1:80): −18.9 mV | zeta potential ([1]; ratio polycation:mancozeb 1:120): −18.3 mV | solubility [2]: about 6.2 mg per liter
